# According to US10662229B2, “Spider venom peptides and methods of use for modulating sodium channels” (priority 2016, dated 2020):
# Entries after “also recorded” stand apart in the source; their conditions may differ.
# Assays:
# [1] = tested on: ciguatoxin-induced spontaneous pain in mice; test: Ciguatoxin-induced spontaneous pain; type: in vivo; settings: intraplantar, co-injected with ciguatoxin
# Procedure: (§1) For behavioural assessment adult male C57BL/6J mice aged 6-8 weeks were used. Animals were housed in groups of 3 or 4 per cage, under 12 h light-dark cycles and had standard rodent chow and water ad libitum.
# Ciguatoxin (P-CTX-1; isolated in accordance with the protocol of Hamilton et al. (2002) Toxicon, 40(6): 685-693) was diluted in phosphate-buffered saline/0.1% BSA (10 nM) and administered by shallow subcutaneous (intraplantar) injection to the left hind paw of mice in a volume of 40 μL under light isoflurane (3%) anesthesia. Mice were then placed individually into polyvinyl boxes (10×10×10 cm), and spontaneous pain behavior (licks and flinches) was counted by an investigator unaware of the treatments received from video recordings for 10 min post-injection.
# [2] = biological target: T1, hNav1.5 (Homo sapiens, UniProt Q14524); test: Automated patch clamping (QPatch-16), hNav1.5; type: cell-based
# T1 construct: host or cells: HEK293
# T1 sequence (Q14524 whole entry): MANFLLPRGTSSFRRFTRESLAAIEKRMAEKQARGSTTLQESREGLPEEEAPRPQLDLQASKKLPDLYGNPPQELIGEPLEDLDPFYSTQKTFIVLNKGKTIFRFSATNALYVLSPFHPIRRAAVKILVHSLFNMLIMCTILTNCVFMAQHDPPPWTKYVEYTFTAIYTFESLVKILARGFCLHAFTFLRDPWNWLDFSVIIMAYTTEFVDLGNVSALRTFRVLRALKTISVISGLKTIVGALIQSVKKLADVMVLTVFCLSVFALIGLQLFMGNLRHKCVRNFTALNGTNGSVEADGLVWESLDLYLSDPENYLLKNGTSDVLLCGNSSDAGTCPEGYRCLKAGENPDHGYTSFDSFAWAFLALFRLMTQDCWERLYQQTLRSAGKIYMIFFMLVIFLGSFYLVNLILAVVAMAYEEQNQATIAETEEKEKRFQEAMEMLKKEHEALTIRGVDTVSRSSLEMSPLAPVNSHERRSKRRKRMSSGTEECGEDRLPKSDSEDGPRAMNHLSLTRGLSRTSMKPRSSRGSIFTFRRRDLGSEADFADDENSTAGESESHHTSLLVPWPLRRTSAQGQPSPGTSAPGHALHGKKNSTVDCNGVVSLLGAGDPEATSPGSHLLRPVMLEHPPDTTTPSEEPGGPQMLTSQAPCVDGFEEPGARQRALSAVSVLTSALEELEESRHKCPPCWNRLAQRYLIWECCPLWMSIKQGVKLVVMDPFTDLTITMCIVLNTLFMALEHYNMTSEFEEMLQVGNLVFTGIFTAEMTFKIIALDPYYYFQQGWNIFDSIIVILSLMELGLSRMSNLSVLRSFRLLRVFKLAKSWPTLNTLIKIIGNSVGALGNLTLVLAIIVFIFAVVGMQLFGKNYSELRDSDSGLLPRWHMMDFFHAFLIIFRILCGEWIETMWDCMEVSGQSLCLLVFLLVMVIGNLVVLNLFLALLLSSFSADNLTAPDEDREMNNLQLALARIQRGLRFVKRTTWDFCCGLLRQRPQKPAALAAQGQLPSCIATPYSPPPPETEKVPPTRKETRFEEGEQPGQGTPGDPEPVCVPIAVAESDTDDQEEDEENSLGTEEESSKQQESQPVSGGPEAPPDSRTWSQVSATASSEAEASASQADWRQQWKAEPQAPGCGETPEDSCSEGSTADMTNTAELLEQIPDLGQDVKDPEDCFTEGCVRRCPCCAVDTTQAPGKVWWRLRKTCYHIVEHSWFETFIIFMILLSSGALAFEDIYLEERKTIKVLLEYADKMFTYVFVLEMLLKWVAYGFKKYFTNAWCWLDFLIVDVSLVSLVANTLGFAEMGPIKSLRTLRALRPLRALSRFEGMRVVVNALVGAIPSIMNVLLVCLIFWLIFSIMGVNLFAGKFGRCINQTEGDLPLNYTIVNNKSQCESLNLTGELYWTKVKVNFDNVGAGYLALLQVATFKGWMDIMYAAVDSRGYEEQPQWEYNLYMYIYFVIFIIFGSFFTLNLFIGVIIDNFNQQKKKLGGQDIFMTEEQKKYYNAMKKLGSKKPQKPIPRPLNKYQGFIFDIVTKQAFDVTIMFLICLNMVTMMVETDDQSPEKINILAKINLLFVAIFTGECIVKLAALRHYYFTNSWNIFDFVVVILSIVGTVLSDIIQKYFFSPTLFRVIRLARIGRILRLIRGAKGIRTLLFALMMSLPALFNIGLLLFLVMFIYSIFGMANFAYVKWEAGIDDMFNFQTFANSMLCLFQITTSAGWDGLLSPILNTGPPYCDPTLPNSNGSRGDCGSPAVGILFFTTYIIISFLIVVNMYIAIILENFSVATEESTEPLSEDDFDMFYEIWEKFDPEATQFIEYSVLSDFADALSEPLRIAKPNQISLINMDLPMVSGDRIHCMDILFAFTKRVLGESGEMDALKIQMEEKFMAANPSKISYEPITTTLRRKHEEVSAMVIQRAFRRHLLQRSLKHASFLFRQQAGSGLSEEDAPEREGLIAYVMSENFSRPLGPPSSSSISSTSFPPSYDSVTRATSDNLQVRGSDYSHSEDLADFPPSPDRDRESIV
# Procedure: (§2) HEK293 cells stably expressing hNav1.1-1.7 or CHO cells stably expressing hNav1.8 (as described in Example 3 above) were cultured in a T-175 flask in selection antibiotic-free media at 37° C. Cells were grown to 70-80% confluence and harvested using Detachin (Bio-Scientific, NSW, Australia) at 37° C. for 2 min. Dissociated cells were then resuspended in Ex-Cell ACF CHO Medium with HEPES (25 mM; Sigma-Aldrich Co.) and allowed to recover on the QStirrer for 30 min.
# (§3) The extracellular solution contained in mM: NaCl 145, KCl 4, CaCl2 2, MgCl2 1, HEPES 10 and glucose 10. The pH was adjusted to 7.4 with NaOH and osmolarity was adjusted with sucrose to 305 mOsm. The intracellular solution contained in mM: CsF 140, ethylene glycol tetraacetic acid (EGTA)/CsOH 1/5, HEPES 10 and NaCl 10. The pH was adjusted to 7.3 with CsOH and osmolarity adjusted with sucrose to 320 mOsm. […]
# (§4) The current-voltage (IV) curve was constructed with a holding potential of −80 mV followed by a pre-pulse of −100 mV for 50 ms and a series of 50 ms step pulses that ranged from −80 to 50 mV in 5 mV increments before returning to a holding potential of −80 mV. Voltage-dependence of activation was determined as normalized Nav conductance (GNa) using: GNa=INa/(Vmemb−Vrev), where Vmemb is the membrane potential and Vrev is the reversal potential for each cell. […]
# [3] = biological target: T2, hERG (Homo sapiens, UniProt Q12809); test: hERG automated patch clamping in CHO cells; type: cell-based; settings: 100 nM
# T2 construct: host or cells: CHO
# T2 sequence (Q12809 whole entry): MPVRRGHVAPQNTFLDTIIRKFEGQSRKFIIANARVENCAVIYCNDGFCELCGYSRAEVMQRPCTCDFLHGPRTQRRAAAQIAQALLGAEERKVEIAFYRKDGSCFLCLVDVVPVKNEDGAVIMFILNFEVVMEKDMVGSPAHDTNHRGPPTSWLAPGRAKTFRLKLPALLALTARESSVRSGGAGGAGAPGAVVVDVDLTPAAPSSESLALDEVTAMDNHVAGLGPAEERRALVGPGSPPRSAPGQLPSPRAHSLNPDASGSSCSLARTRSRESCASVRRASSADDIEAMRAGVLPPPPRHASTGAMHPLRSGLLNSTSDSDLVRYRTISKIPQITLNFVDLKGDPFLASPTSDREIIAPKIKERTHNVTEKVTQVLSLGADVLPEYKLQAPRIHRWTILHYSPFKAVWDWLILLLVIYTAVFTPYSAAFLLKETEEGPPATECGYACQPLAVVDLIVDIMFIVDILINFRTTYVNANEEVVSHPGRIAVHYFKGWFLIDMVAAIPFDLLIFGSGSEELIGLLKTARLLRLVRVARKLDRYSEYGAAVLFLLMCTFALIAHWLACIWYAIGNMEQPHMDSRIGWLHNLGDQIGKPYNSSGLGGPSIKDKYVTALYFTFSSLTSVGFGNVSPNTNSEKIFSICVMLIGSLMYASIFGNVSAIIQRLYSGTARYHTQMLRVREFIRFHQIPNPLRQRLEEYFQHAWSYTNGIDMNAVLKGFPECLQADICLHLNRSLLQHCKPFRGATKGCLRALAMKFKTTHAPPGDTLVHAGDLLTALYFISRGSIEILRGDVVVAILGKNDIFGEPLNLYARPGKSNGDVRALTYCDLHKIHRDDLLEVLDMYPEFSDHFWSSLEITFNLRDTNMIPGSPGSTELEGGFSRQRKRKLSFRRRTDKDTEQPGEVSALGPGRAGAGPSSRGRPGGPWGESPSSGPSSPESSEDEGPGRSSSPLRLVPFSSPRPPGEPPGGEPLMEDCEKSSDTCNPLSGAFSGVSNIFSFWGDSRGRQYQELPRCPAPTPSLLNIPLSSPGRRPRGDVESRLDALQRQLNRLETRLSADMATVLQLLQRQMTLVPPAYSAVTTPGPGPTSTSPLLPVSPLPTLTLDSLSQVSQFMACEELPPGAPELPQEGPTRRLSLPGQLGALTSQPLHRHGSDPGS
# Procedure: CHO cells stably expressing hERG (B'SYS GmbH, Witterswil, Switzerland) were cultured in Ham's F-12 medium containing 10% v/v FBS and selection antibiotics as recommended by the manufacturer. Cells were cultured and prepared as described in Example 4.
# The extracellular solution contained in mM: NaCl 145, KCl 4, MgCl2 1, CaCl2 2, HEPES 10 and glucose 10. The pH was adjusted to 7.4 and osmolarity was 305 mOsm. The intracellular solution contained in mM; KCl 120, HEPES 10, CaCl2 5, MgCl2 1.7, K2ATP 4, EGTA 10.
# The pH was adjusted to 7.3 and osmolarity was 292 mOsm.
# Whole-cell patch-clamp experiments were performed on a QPatch-16 automated electrophysiology platform (as described in Example 4). hERG currents were elicited by a depolarization step of +40 mV from a holding potential of −80 mV for 5 s. hERG tail currents were elicited upon partial repolarization to −50 mV for 5 s. The interval of voltages pulses was 15 s.
# [4] = biological target: T3, hNav1.9 (Homo sapiens, UniProt Q9UI33); test: Automated patch clamp (PatchXpress), hNav1.9; type: cell-based
# T3 construct: expressed in transfected cells; host or cells: HEK293
# Procedure: Cells were triturated until a single cell suspension was achieved. […] Cell aliquots of 5 mL (1×10^6 cells) were placed in a 15 mL centrifuge tube and spun at 100×g for 2 minutes.
# [5] = tested on: OD1-induced spontaneous pain behaviours in mice; test: OD1 model of spontaneous pain behaviours; type: in vivo
# Procedure: as §1
# OD1 was diluted in phosphate-buffered saline/0.1% BSA (300 nM) and administered by shallow subcutaneous (intraplantar) injection to the left hind paw of mice in a volume of 40 μL under light isoflurane (3%) anesthesia. Mice were then placed individually into polyvinyl boxes (10×10×10 cm), and spontaneous pain behavior (licks and flinches) was counted by an investigator unaware of the treatments received from video recordings for 10 min post-injection.
# [6] = biological target: T4, hNav1.7 (Homo sapiens, UniProt Q15858); test: Automated patch clamping (QPatch-16), hNav1.7; type: cell-based; settings: for voltage dependence of activation, V50: control −25.1±0.5 mV
# T4 construct: host or cells: HEK293
# T4 sequence (Q15858 whole entry): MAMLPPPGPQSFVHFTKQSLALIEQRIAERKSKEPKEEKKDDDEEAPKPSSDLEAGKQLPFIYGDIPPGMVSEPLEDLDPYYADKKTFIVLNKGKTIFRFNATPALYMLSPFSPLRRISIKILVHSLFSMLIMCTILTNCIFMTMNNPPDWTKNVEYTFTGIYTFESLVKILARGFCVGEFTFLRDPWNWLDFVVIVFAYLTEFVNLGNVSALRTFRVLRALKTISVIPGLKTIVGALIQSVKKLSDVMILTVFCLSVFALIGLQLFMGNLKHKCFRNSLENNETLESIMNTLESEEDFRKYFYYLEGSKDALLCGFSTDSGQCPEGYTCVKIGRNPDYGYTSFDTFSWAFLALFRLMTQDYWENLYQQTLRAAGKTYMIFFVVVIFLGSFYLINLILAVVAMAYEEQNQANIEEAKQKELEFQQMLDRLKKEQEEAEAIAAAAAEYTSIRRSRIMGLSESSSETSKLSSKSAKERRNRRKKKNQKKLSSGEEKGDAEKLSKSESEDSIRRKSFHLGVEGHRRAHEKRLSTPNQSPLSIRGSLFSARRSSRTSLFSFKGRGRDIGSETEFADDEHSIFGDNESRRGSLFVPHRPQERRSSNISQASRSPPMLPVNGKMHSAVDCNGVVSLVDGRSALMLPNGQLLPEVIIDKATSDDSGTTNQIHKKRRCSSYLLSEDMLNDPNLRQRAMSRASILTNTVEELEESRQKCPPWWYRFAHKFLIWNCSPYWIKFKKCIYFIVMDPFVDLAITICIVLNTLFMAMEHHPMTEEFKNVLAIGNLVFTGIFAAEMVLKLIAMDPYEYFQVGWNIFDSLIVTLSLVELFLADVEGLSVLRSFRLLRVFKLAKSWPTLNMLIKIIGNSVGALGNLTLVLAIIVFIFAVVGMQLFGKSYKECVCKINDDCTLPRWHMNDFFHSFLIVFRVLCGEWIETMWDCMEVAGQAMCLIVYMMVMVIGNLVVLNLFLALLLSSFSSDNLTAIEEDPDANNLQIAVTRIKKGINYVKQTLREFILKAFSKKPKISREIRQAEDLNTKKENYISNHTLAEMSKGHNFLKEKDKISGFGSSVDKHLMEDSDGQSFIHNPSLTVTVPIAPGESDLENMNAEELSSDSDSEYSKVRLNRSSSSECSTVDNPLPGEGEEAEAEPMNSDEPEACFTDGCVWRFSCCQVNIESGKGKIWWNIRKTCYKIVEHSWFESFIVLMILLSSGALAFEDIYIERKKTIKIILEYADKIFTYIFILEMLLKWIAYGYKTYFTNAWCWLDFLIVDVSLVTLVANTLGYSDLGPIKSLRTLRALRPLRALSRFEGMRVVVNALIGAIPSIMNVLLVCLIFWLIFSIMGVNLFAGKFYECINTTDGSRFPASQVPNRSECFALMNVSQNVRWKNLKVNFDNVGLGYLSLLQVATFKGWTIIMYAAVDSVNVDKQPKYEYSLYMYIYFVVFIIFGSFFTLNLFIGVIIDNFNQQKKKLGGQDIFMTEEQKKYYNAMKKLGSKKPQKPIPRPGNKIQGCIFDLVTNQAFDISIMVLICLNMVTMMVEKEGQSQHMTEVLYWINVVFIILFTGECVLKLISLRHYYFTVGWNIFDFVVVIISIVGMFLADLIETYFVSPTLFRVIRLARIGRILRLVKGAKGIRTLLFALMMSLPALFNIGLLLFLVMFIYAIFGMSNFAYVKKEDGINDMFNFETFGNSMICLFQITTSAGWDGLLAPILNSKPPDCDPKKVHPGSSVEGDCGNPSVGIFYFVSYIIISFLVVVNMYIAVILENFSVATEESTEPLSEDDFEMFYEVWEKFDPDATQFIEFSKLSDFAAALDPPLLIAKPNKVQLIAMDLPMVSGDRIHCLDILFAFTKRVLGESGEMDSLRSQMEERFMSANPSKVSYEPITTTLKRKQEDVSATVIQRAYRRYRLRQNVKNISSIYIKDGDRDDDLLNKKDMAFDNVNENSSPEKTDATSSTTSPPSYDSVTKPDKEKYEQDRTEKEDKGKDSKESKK
# Procedure: as §2
# The extracellular solution contained in mM: NaCl 145, KCl 4, CaCl2 2, MgCl2 1, HEPES 10 and glucose 10. The pH was adjusted to 7.4 with NaOH and osmolarity was adjusted with sucrose to 305 mOsm. The intracellular solution contained in mM: CsF 140, ethylene glycol tetraacetic acid (EGTA)/CsOH 1/5, HEPES 10 and NaCl 10. The pH was adjusted to 7.3 with CsOH and osmolarity adjusted with sucrose to 320 mOsm.
# Whole-cell patch-clamp experiments were performed on a QPatch-16 automated electrophysiology platform (Sophion Bioscience, Ballerup, Denmark) using 16-channel planar patch chip plates (QPlates; Sophion Bioscience) with a patch hole diameter of 1 μm and resistance of 2±0.02 MΩ with the following parameters: positioning pressure −60 mbar, minimum seal resistance 0.1 GΩ, holding potential −100 mV, holding pressure −20 mbar.
# Whole-cell currents were filtered at 5 kHz and acquired at 25 kHz.
# The current-voltage (IV) curve was constructed with a holding potential of −80 mV followed by a pre-pulse of −100 mV for 50 ms and a series of 50 ms step pulses that ranged from −80 to 50 mV in 5 mV increments before returning to a holding potential of −80 mV. Voltage-dependence of activation was determined as normalized Nav conductance (GNa) using: GNa=INa/(Vmemb−Vrev), where Vmemb is the membrane potential and Vrev is the reversal potential for each cell. The voltage of activation data was fitted to a Boltzmann sigmoidal curve using GraphPad Prism, version 6.0.
# [7] = biological target: T5, hNav1.4 (Homo sapiens, UniProt P35499); test: Automated patch clamping (QPatch-16), hNav1.4; type: cell-based
# T5 construct: host or cells: HEK293
# Procedure: as §2, §3, §4
# [8] = biological target: T6, hNav1.6 (Homo sapiens, UniProt Q9UQD0); test: Automated patch clamping (QPatch-16), hNav1.6; type: cell-based; settings: mean±SEM
# T6 construct: host or cells: HEK293
# Procedure: as §2, §3, §4
structure (smiles),measurement,setting,value
CSCC[C@@H]1NC(=O)[C@H](Cc2ccc(O)cc2)NC(=O)[C@H](CCCNC(=N)N)NC(=O)[C@@H](NC(=O)[C@@H](N)CC(=O)O)CSSC[C@@H]2NC(=O)[C@@H]3CSSC[C@@H](C(=O)N[C@@H](C)C(=O)N[C@@H](Cc4c[nH]c5ccccc45)C(=O)N[C@@H](CC(=O)O)C(=O)N[C@@H](Cc4ccccc4)C(=O)N[C@H](C(=O)N[C@@H](Cc4ccccc4)C(=O)N[C@H](C(=O)O)[C@@H](C)O)[C@@H](C)O)NC(=O)[C@H](Cc4ccc(O)cc4)NC(=O)[C@H](CCCCN)NC(=O)[C@H](CCSC)NC(=O)[C@H](CCCCN)NC(=O)[C@H](CCCNC(=N)N)NC(=O)[C@H](CCCCN)NC(=O)[C@H](CSSC[C@H](NC(=O)[C@H](CC(=O)O)NC(=O)CNC(=O)[C@H](Cc4ccccc4)NC1=O)C(=O)N[C@@H](CCC(=O)O)C(=O)N[C@@H](CCCCN)C(=O)N[C@@H](CC(=O)O)C(=O)N[C@@H](CCC(=O)O)C(=O)N[C@@H](CC(=O)O)C(=O)N3)NC(=O)CNC(=O)[C@H](CC(C)C)NC(=O)[C@H](Cc1cnc[nH]1)NC(=O)[C@H](CCCCN)NC2=O [Pnc1a],ciguatoxin-induced spontaneous pain behaviours,[1],significantly reduced
same,IC50,[2],977 nM
same,effect on hERG peak tail current,[3],did not have a significant effect
same,hERG peak tail current,[3]; control 539±13 pA,504±38 pA
same,IC50,[4],2340 nM
same,spontaneous pain behaviours evoked by OD1,"[5]; intraperitoneal 0.3, 1, 3 mg/kg, 15 min prior to OD1",concentration-dependently reversed; also recorded: dose-dependently reduced
same,spontaneous pain behaviours evoked by OD1,"[5]; intraplantar, co-injected with OD1, 100 nM, 300 nM, 1 μM",concentration-dependently reversed
same,"voltage dependence of activation, V50",[6]; 0.3 nM,−28.94±0.66 mV
same,"voltage dependence of activation, V50",[6]; 10 nM,−4.40±2.2 mV
same,effect on the voltage dependence of fast inactivation,[6]; 100 nM,no effect
same,effect on the voltage dependence of slow inactivation,[6]; 100 nM,no effect
same,"voltage dependence of activation, V50",[6]; 100 nM,−3.82±0.8 mV
same,IC50,[7],158 nM
same,pIC50 Nav1.6,[8],6.89±0.1 M
